Measurements taken from patent publication US8927590B2, “Synthesis of pyrrolidine compounds” (Zealand Pharma A/S, priority 2006, dated 2015).
Read-outs that look alike come from different tables or passages of the source.

Assay: Dynamic vapor sorption (DVS) at a series of relative humidity conditions
Type: physicochemical
Procedure: In some embodiments, the (2S,4R)-1-(2-aminoacetyl)-4-benzamidopyrrolidine-2-carboxylic acid hydrochloride monohydrate is characterized by dynamic vapor sorption (“DVS”). DVS data were collected using Dynamix Vapor Sorption Apparatus (DVS-1) made by Surface Measurement System Ltd. Samples were analyzed by subjecting them to a series of relative humidity (RH) conditions at 25° C. The relative humidity was scanned from about 0% to about 90%.

Structure (SMILES) | reversible change of mass between 0% RH and 10% RH (DVS, 25° C., 0% RH to 10% RH (FIG. 6)) | mass between 10% RH and about 70% RH (DVS, 25° C., 10% RH to about 70% RH (FIG. 6)) | stability of the solid form to changes in humidity (DVS conclusion) (DVS, 25° C., RH cycled about 0% to about 90%) | reversible mass change between about 70% RH and 90% RH (DVS, 25° C., about 70% RH to 90% RH (FIG. 6)) | stability of the solid form to changes in humidity (DVS conclusion) | increase in mass when relative humidity increased from 0% RH to 90% RH (DVS, 25° C., first cycle, 0 to about 1200 min (FIG. 7))
Cl.NCC(=O)N1C[C@H](NC(=O)c2ccccc2)C[C@H]1C(=O)O.O [(2S,4R)-1-(2-aminoacetyl)-4-benzamidopyrrolidine-2-carboxylic acid hydrochloride monohydrate] | about 1.5% | relatively stable mass | sorbed water is reversibly lost and does not appear to adversely affect the integrity of the crystalline form | ~2.5% |  | 
Cl.NCC(=O)N1C[C@H](NC(=O)c2ccccc2)C[C@H]1C(=O)O [(2S,4R)-1-(2-Aminoacetyl)-4-benzamidopyrrolidine-2-carboxylic acid hydrochloride] |  |  |  |  | not stable to environmental changes in humidity | 21.7%
